Calls of active or inactive are those of the source. The calls are words filed in the database; no cut-off is given here.
How the values were obtained:
Hemozoin [1] = test: Inhibition of beta-hematin in water/NP40/DMSO solution incubated for 5 to 6hrs by detergent-mediated pyridine-ferrichrome method
Plasmodium falciparum [2] = test: Antimalarial activity against CQ-sensitive Plasmodium falciparum NF54 infected in human type O+ erythrocytes assessed as growth inhibition incubated for 48 hrs by LDH assay; assay type: functional, organism-based; settings: NF54, 48 h
Hemozoin [3] = test: Inhibition of hemozoin formation in CQ-sensitive Plasmodium falciparum D10 infected in human type O+ erythrocytes assessed as increase in free heme incubated for 32 hrs by cell fractionation assay; assay type: cell-based; settings: Erythrocyte
Hemozoin [4] = test: Inhibition of hemozoin formation in CQ-sensitive Plasmodium falciparum D10 infected in human type O+ erythrocytes assessed as decrease in hemozoin formation incubated for 32 hrs by cell fractionation assay; assay type: cell-based; settings: Erythrocyte
Plasmodium falciparum [5] = test: Antimalarial activity against CQ-sensitive Plasmodium falciparum D10 infected in human type O+ erythrocytes assessed as growth inhibition incubated for 48 hrs by LDH assay; assay type: functional, organism-based; settings: D10, 48 h
Hemozoin [6] = test: Inhibition of hemozoin formation in CQ-sensitive Plasmodium falciparum D10 infected in human type O+ erythrocytes assessed as decrease in hemozoin formation at 0.5 to 4 times beta-hematin IC50 incubated for 32 hrs by cell fractionation assay; assay type: cell-based; settings: Erythrocyte
Hemozoin [7] = test: Inhibition of hemozoin formation in CQ-sensitive Plasmodium falciparum D10 infected in human type O+ erythrocytes assessed as increase in free heme at 0.5 to 4 times beta-hematin IC50 incubated for 32 hrs by cell fractionation assay; assay type: cell-based; settings: Erythrocyte
Ferriprotoporphyrin IX [8] = test: Binding affinity to Fe(3)PP9 solution assessed as ferriprotoporphyrin 9 complex formation by measuring compound concentration causing pink precipitate formation at <=5500 uM
Ferriprotoporphyrin IX [9] = test: Binding affinity to Fe(3)PP9 solution assessed as ferriprotoporphyrin 9 complex formation by measuring pink precipitate formation at <=5500 uM
Hemozoin [10] = test: Inhibition of beta-hematin
Ferriprotoporphyrin IX [11] = tested on: Ferriprotoporphyrin IX
Description: Binding affinity to Fe(3)PP9 in hematin solution at pH 7.5 by titration-based UV-vis spectrophotometrical analysis

| Compound | IC50 (Hemozoin [1]) | IC50 (Plasmodium falciparum [2]) | also measured |
| --- | --- | --- | --- |
| O=C(Nc1ccccc1)c1cc([N+](=O)[O-])cc([N+](=O)[O-])c1 | 22 µM | 5 µM |  |
| O=C(Nc1ccccc1)c1ccccc1[N+](=O)[O-] | > 1000 µM | > 41.3 µM |  |
| O=C(Nc1cccnc1)c1cc([N+](=O)[O-])cc([N+](=O)[O-])c1 | 13 µM | 5 µM | inhibition (Hemozoin [3]): Dose-dependent effect; inhibition (Hemozoin [4]): Dose-dependent effect; IC50 (Plasmodium falciparum [5]): 2300 nM |
| O=C(Nc1cccnc1)c1cc(C(=O)Nc2cccnc2)cc([N+](=O)[O-])c1 | 4.7 µM | 1.32 µM |  |
| O=C(Nc1ccncc1)c1ccc(Cl)cc1 |  |  | Activity (Ferriprotoporphyrin IX [8]): 4500 to 5500 µM |
| O=C(Nc1ccncc1)c1ccc([N+](=O)[O-])cc1[N+](=O)[O-] | > 5500 µM |  | Activity (Ferriprotoporphyrin IX [8]): inactive; Activity (Ferriprotoporphyrin IX [9]): inactive |
| O=C(Nc1ccccc1)c1cc(C(=O)Nc2ccccc2)cc(C(=O)Nc2ccccc2)c1 | 21 µM | 81 µM | IC50 (Plasmodium falciparum [5]): > 42000 nM |
| CCN(CC)Cc1cc(Nc2ccnc3cc(Cl)ccc23)ccc1O [AMODIAQUINE] |  |  | IC50 (Hemozoin [10]): 21 µM |
| Nc1ccnc2cc(Cl)ccc12 |  |  | log K (Ferriprotoporphyrin IX [11]): 4.43 |
| C=C[C@H]1CN2CC[C@H]1C[C@@H]2[C@@H](O)c1ccnc2ccc(OC)cc12 |  |  | log K (Ferriprotoporphyrin IX [11]): 5.26 |

Second part, led by results:

| IC50 (Hemozoin [1]) | Compound | IC50 (Plasmodium falciparum [2]) | also measured |
| --- | --- | --- | --- |
| > 1000 µM | COc1cc(C(=O)Nc2ccccc2)cc(C(=O)Nc2ccccc2)c1 | 37 µM |  |
| > 1000 µM | CC(C)(C)c1cc(C(=O)Nc2ccccc2)cc(C(=O)Nc2ccccc2)c1 | 8.1 µM | inhibition (Hemozoin [6]): inactive; inhibition (Hemozoin [7]): inactive |
| 6.34 µM | N#Cc1cc(C(=O)Nc2ccncc2)cc(C(=O)Nc2ccncc2)c1 | 1.9 µM | IC50 (Plasmodium falciparum [5]): 2000 nM |
| 260 µM | O=C(Nc1ccncc1)c1cccc(C(=O)Nc2ccncc2)n1 | > 315 µM |  |
| > 5500 µM | O=C(Nc1ccccc1)c1ccc([N+](=O)[O-])cc1 |  | Activity (Ferriprotoporphyrin IX [8]): inactive; Activity (Ferriprotoporphyrin IX [9]): inactive |
| > 5500 µM | COc1ccc(C(=O)Nc2ccncc2)cc1 |  | Activity (Ferriprotoporphyrin IX [8]): inactive; Activity (Ferriprotoporphyrin IX [9]): inactive |
| > 5500 µM | O=C(Nc1ccncc1)c1ccccc1 |  | Activity (Ferriprotoporphyrin IX [8]): inactive; Activity (Ferriprotoporphyrin IX [9]): inactive |
| 8 µM | Cc1cc(C(=O)Nc2ccncc2)cc(C(=O)Nc2ccncc2)c1 | 2.5 µM | log K (Ferriprotoporphyrin IX [11]): 3.92 |
| > 1000 µM | O=C(Nc1ccccc1)c1cccc(C(=O)Nc2ccccc2)n1 | > 315 µM |  |

From ChEMBL document CHEMBL4428041, “Identification and SAR Evaluation of Hemozoin-Inhibiting Benzamides Active against Plasmodium falciparum” (J Med Chem, 2016)
